pEC50: −log10 of the molar value. Non-standard residues stand in square brackets, D forms with d. Residues, ends and D or L forms follow the SMILES beside them. *: point of attachment. Arg(NO2) = N=C(NCCC[C@H](N)C(=O)O)N[N+](=O)[O-]; Bz = O=C(c1ccccc1)*
Species on record: Rattus norvegicus
Assay: In vitro vasorelaxant activity in male wistar rat thoracic aorta by classical rat aorta relaxation assay; call rule not given here
Type: functional

Row | Compound | pEC50
1 | CC(C)C[C@H](NC(=O)[C@H](CCC/N=C(\N)N[N+](=O)[O-])NC(=O)c1ccccc1)C(N)=O (Bz-[Arg(NO2)]-Leu-NH2) | 3.40
2 | CC(C)C[C@H](NC(=O)[C@H](CCC/N=C(\N)N[N+](=O)[O-])NC(=O)c1ccc(OC(F)(F)F)cc1)C(N)=O | 4.70
3 | COc1ccc(C(=O)N[C@@H](CCC/N=C(\N)N[N+](=O)[O-])C(=O)N[C@@H](CC(C)C)C(N)=O)cc1 | 4.16
4 | CC[C@H](C)[C@H](NC(=O)[C@H](CC(C)C)NC(=O)[C@@H](N)CO)C(=O)NCC(=O)N[C@@H](CCCNC(=N)N)C(=O)N[C@@H](CC(C)C)C(N)=O (H-SLIGRL-NH2) | 5.40

Species on record: Rattus norvegicus
Assay: In vitro vasorelaxant activity in male wistar rat thoracic aorta by classical rat aorta relaxation assay; n.a.=not active up to a concentration of 3e-4 M
Type: functional

Row | Compound | EC50
5 | CC(C)C[C@H](NC(=O)[C@H](CCC/N=C(\N)N[N+](=O)[O-])NS(=O)(=O)c1ccccc1)C(N)=O | Not Active
6 | CC(C)C[C@H](NC(=O)[C@H](CCC/N=C(\N)N[N+](=O)[O-])NC(=O)c1ccc(C(F)(F)F)cc1)C(N)=O | Not Active
7 | CC(=O)N[C@@H](CCC/N=C(\N)N[N+](=O)[O-])C(=O)N[C@@H](CC(C)C)C(N)=O (Ac-[Arg(NO2)]-Leu-NH2) | Not Active
8 | CSc1ccc(C(=O)N[C@@H](CCC/N=C(\N)N[N+](=O)[O-])C(=O)N[C@@H](CC(C)C)C(N)=O)cc1 | Not Active
9 | CC(C)C[C@H](NC(=O)[C@H](CCC/N=C(\N)N[N+](=O)[O-])NC(=O)c1ccc([N+](=O)[O-])cc1)C(N)=O | Not Active
10 | CC(C)C[C@H](NC(=O)[C@H](CCC/N=C(\N)N[N+](=O)[O-])NC(=O)c1ccc(C#N)cc1)C(N)=O | Not Active
11 | CC(C)C[C@H](NC(=O)[C@H](CCC/N=C(\N)N[N+](=O)[O-])NC(=O)C1CCCCC1)C(N)=O | Not Active
12 | CC(C)C[C@H](NC(=O)[C@H](CCC/N=C(\N)N[N+](=O)[O-])NC(=O)c1ccc(Cl)cc1)C(N)=O | Not Active

Reference: ChEMBL document CHEMBL1135088, “Minimal structural requirements for agonist activity of PAR-2 activating peptides” (Bioorg Med Chem Lett, 2002)
